Consider two molecules from ChEMBL document CHEMBL5725463, “Amino-dihydrothiazine and amino-dioxido dihydrothiazine compounds as beta-secretase antagonists and methods of use” (2017).

One assay has as its target Beta-secretase 1 (Homo sapiens, UniProt P56817). The experiment in a line: In Vivo Inhibition of Beta-Secretase: Several animal models, including mouse, rat, dog, and monkey, may be used to screen for inhibition of beta-secretase activity in vivo following administration of a test compound sample. Animals used in this invention can be wild type, transgenic, or gene knockout animals. For example, the Tg2576 mouse model, prepared and conducted as described in Hsiao et al., 1996, Science 274, 99-102, and other non-transgenic or gene knockout animals are useful to analyze in vivo inhibition of Amyloid beta peptide (Abeta) production in the presence of inhibitory test compounds. Generally, 2 to 18 month old Tg2576 mice, gene knockout mice or non-transgenic animals are administered test compounds formulated in vehicles, such as cyclodextran, phosphate buffers, hydroxypropyl methylcellulose or other suitable vehicles. […]. Format: organism-based.

The target in a further assay is Cathepsin D (Homo sapiens, UniProt P07339). As to the kind of experiment: In Vitro Enzymatic: Recombinant Cat D was expressed in CHO cells. The assay buffer for CathepsinD is 0.05 M citrate pH 3.5, 10% DMSO final, 5 mM CHAPS. The Cat D enzyme (9 nM) is pre-incubated for one hour with inhibitors, typically in about 1 uL of DMSO according to a serial dilution, is added thereto. The assays are effectively started by the addition of different FRET substrates (20 nM for Cat D) and the combination is incubated for one hour. The FRET assay is terminated with by addition of Tris buffer, which raises the pH to neutrality, and the fluorescence is determined. The FRET substrate is a peptide with commercially available fluorophore and quencher, on opposite sides of the BACE cleavage site. The Cat D substrate peptide sequence is based on sequence #1 of Table 1 from Gulnik et al. FEBS Letters v413 p 379-384 1997. Proteolytic cleavage of the FRET substrate releases quenching of fluorescence (Cat D excitation 500 nm and emission 580 nm).Alternatively, a Cat D assay may also be run according to the procedure described in the article, Characterization of new fluorgenic substrates for the rapid and sensitive assay of cathepsin E and cathepsin D, J. Biochem., 125:1137, 1999. Type of assay: cell-based.
Sequence of Cathepsin D (P07339 65-162 limits assumed): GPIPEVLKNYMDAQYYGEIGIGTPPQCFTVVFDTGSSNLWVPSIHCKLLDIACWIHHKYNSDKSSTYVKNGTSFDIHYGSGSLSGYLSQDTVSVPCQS
Sequence of Cathepsin D (P07339 169-412 limits assumed): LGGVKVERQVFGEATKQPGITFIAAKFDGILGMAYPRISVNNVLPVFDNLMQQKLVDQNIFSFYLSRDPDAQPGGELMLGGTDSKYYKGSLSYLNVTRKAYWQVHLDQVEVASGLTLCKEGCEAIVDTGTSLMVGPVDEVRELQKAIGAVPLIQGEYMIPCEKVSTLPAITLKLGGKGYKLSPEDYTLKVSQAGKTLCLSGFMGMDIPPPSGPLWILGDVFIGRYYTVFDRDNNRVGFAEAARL

Sequence of Beta-secretase 1 (P56817 whole entry): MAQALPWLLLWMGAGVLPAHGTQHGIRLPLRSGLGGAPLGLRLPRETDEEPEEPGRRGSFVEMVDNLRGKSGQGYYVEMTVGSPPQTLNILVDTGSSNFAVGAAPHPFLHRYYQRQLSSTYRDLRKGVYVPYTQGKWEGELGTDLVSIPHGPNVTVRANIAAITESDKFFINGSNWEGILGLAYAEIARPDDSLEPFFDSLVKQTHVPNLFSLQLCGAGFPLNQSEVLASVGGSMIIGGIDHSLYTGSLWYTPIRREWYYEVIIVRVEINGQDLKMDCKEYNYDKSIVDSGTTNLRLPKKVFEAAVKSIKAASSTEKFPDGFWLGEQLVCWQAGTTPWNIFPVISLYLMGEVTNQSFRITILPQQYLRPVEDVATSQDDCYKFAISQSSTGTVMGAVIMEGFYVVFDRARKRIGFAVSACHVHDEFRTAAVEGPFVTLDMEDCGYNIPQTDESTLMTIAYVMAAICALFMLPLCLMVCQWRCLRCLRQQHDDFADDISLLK

One may read the IC50 as the concentration that gives 50% inhibition. Regarding `Cc1cc(Cl)cnc1C(=O)Nc1ccc(F)c([C@]2(C)CS(=O)(=O)C3(CCC3)C(N)=N2)c1`, the IC50 at Beta-secretase 1 was 0.0016 µM; on Cathepsin D it was 84.7 µM.

For `Cc1cc(C#N)cnc1C(=O)Nc1ccc(F)c([C@]2(C)CS(=O)(=O)C3(CCC3)C(N)=N2)c1`, the IC50 at Beta-secretase 1 was 0.00076 µM; at Cathepsin D it was 134 µM.
